Assay results taken from US20190315711A1 (eXIthera Pharmaceuticals, Inc., priority 2016, published 2019).

Experiments:
Trypsin = target: T1, Trypsin (Bos taurus, UniProt P00760); assay: Dose response assay for protease inhibitors: trypsin; format: biochemical; settings: ratio versus Factor XIa
T1 construct: gene PRSS1
T1 sequence (P00760 24-246): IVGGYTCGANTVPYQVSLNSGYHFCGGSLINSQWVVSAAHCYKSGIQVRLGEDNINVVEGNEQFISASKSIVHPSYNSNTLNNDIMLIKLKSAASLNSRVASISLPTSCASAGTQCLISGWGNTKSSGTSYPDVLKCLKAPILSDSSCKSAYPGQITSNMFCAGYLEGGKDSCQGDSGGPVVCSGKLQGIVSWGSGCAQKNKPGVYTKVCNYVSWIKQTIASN
Protocol: (§1) • Assay buffer: 20 mM Hepes, pH 7.4; 150 mM NaCl; 0.02% Tween 20 • Compounds: 10 mM stocks in DMSO • Substrate: 20 mM Glp-Pro-Arg-AMC, 25 mg/2.3 mL H2O (store at +4° C.) [Factor XIa, thrombin, and trypsin] • 20 mM Pro-Phe-Arg-AMC (Bachem I-1295), 25 mg/2.2 mL H2O or Boc-Leu-Gly-Arg-AMC (Bachem I-1105), 25 mg/2.07 mL H2O (store at +4° C.) [Factor Xa] • Enzyme: Factor XIa; 0.25 M in 50% glycerol (20 μg/mL) • Trypsin; 0.2 μM in 50% glycerol (4.8 μg/mL) • Thrombin; 0.2 μM in 50% glycerol (7.34 μg/mL) • Factor Xa; 0.2 μM in 50% glycerol (9.2 μg/mL)
(§2) • 1. Dilute the substrate to 100 μM in assay buffer (30 μL/6 mL). The enzyme is diluted to 0.5 nM just prior to use (12 L/6 mL for Factor XIa; 15 μL/6 mL for all of the rest.) • 2. Pipette 50 μL of substrate into each well of the 96 well (12×8) microtiter plate. (Column 1 is used as the 100% activity control and receives no compound, and Column 12 is the blank and receives no enzyme.) Add an additional 46 μL to column 2. • 3. Pipette 4 μL of each compound into the appropriate well in column 2 of the plate (unknowns assayed in triplicate, standard assayed in duplicate). The final compound concentration will be 1/50th of the stock. • 4. Serially two-fold dilute the compound by mixing the sample in column 2, removing 50 μL to the next well (column 3), mix and remove to column 4, etc. until column 11. After mixing column 11, remove 50 μL and discard. • 5. Pipette 50 μL of buffer into column 12. Initiate the reaction by adding 50 μL of enzyme solution to each well of columns 1-11 as rapidly as possible. • 6. Read the plate in a spectrophotometer (SpectraMax) at 30° C., wherein each well is measured every 60 s for 30 min. For Factor Xa assays, each well is measured every 1 min for a total of 60 min. • 7. For Factor XIa assays, the compounds are assayed, in duplicate, at 3 different starting concentrations, 20, 2, and 0.2 μM; 1:10, 1:100, and 1:1000 dilution of 10 mM stock or at 2, 0.2, and 0.02 μM; 1:100, 1:1000, and 1:10,000 dilution of 10 mM stock. Data for each concentration are combined for graphing and data fitting. • 8. Data can be used both for estimation of IC50 and for estimation of Kon.

Thrombin = target: T2, Thrombin (Homo sapiens, UniProt P00734); assay: Dose response assay for protease inhibitors: thrombin; format: biochemical; settings: ratio versus Factor XIa
T2 construct: Thrombin; 0.2 μM in 50% glycerol (7.34 μg/mL)
Protocol: as §1, §2

human Factor XIa = human Factor XIa (Homo sapiens, UniProt P03951); assay: Factor XIa enzyme inhibition assay (dose response, fluorogenic AMC substrate); format: biochemical; design: Enzyme: Factor XIa; settings: purified enzyme; substrate 50 μM, enzyme 0.25 nM; read-out: hFXIa IC50
Sequence of human Factor XIa (P03951 388-625 limits assumed): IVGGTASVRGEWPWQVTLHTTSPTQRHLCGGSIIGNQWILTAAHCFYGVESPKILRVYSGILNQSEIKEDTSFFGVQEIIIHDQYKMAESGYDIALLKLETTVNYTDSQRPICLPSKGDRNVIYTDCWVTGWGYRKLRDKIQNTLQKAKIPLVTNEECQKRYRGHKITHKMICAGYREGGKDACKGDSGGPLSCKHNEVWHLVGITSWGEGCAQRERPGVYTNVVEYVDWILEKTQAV
Sequence of human Factor XIa (P03951 19-387 partner limits assumed): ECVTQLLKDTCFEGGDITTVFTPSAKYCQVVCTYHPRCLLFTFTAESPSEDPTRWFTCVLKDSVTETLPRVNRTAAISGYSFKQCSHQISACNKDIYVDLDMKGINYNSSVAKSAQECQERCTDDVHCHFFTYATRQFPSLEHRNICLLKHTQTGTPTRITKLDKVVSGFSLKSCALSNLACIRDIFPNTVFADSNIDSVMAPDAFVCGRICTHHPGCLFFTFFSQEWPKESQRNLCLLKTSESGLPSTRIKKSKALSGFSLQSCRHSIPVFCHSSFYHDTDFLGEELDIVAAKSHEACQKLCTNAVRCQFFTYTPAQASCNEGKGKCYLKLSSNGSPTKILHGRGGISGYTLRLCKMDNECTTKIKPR
Protocol: as §1, §2
Potential inhibitors of Factor XIa were evaluated using the following assay.
PyroGlu-Pro-Arg-7-methylaminocourin (AMC), available from CPC Scientific, Inc., is based on the substrate pyro-Glu-Pro-Arg-pNA (S-2366), available from Diapharma Group, Inc. (Columbus, Ohio), wherein the p-nitroanaline group is replaced with 7-methylaminocoumarin (AMC).
The final concentration of the substrate in the assay was 50 μM, and the final concentration of the enzyme was 0.25 nM. Inhibitors were tested by serial dilution over an appropriate range to yield a dose response curve for determination of the inhibitors' IC50 value. The assay mixture was read every minute for 30 minutes in order to generate progress curves. The plates were read in a Spectramax m5 Multimode Plate Reader (Molecular Devices LLC, Sunnyvale, Calif.). Dose response curves were fit to Equation 1 below in which A is the maximum inhibition, B is the minimum inhibition, C is the IC50, and D is the Hill coefficient.
Y=[(A−B)/(1+(X/C)^D)]+B (Equation 1)

Factor Xa = target: T3, Factor Xa (Homo sapiens, UniProt P00742); assay: Dose response assay for protease inhibitors: Factor Xa; format: biochemical; settings: ratio versus Factor XIa
T3 construct: Factor Xa; 0.2 μM in 50% glycerol (9.2 μg/mL)
T3 sequence (P00742 235-488 limits assumed): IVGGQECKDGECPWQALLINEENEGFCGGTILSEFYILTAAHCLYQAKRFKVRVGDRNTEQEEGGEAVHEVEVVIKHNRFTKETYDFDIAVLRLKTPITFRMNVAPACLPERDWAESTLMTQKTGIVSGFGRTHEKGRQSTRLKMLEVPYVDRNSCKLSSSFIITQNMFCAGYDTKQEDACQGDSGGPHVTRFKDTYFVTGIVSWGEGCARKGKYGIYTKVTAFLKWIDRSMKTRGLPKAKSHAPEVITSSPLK
T3 sequence (P00742 41-179 partner limits assumed): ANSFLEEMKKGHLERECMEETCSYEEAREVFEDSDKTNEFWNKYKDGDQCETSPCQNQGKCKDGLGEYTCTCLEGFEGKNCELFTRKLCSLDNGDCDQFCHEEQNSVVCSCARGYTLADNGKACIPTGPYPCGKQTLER
Protocol: as §1, §2

[1] = Caco-2 cell permeability assay (A-B and B-A); format: in vitro ADME; settings: human; for Papp A→B at 60 min, 10 μM: A-B direction; for Papp B→A at 40 min, 10 μM: B-A direction
Protocol: The following procedure was used to determine the ability of a test compound to cross Caco-2 cells (human intestinal epithelial cells derived from a colorectal adenocarcinoma). The cells were seeded at 1×10^5 cells/cm^2 in 96-well Multiscreen™ plates (Millipore). Permeability assays were performed with the cells at days 21-25 post-seeding. Cells are typically used for 15 consecutive passages in culture.
This assay can be performed in either the apical to basolateral (A−B) or basolateral to apical (B−A) direction. The test compound was prepared at 10 μM in HBSS-MES (pH 6.5) or HBSS-HEPES (pH 7.4) with a final DMSO concentration of 1%. The working solution was then centrifuged and the supernatant added to the donor side. The assay plate was incubated at 37° C. with gentle shaking for 60 min or 40 min for the A−B or B−A assay, respectively. Samples were aliquoted from the donor side at time zero and the end point, and from the receiver side at the end point.
Reference compounds, propranolol (highly permeable), labetalol (moderately permeable), ranitidine (poorly permeable), and colchicine (P-glycoprotein substrate) were included in each assay.
Samples are analyzed by HPLC-MS/MS using selected reaction monitoring. The HPLC system consists of a binary LC pump with autosampler, a C-18 column, and a gradient.
The apparent permeability coefficient (Papp) of the test compound (Equation 2) and its recovery (Equation 3) are calculated as follows: […]
wherein A is the surface area of the cell monolayer (0.11 cm^2), C is concentration of the test compound expressed as peak area, D denotes donor, and R is receiver. “0”, “mid,” and “end” denote time at zero, mid-point, and end of the incubation, respectively. At is the incubation time. V is the volume of the donor or receiver.
This is most likely due to non-specific binding or degradation.

| Ratio: Trypsin/FXIa (Trypsin) | Ratio: Thrombin/FXIa (Thrombin) | IC50 (human Factor XIa) | FXa/FXIa (selectivity ratio) (Factor Xa) | Papp A→B at 60 min, 10 μM [1] | Papp B→A at 40 min, 10 μM [1] | SMILES |
| --- | --- | --- | --- | --- | --- | --- |
| G (“G” indicates 1-100) | I (“I” indicates >500) | < 10 nM | I (“I” indicates >500) | 11 to 30 ×10⁻⁶ cm/s | 11 to 30 ×10⁻⁶ cm/s | CC[C@@H](NC(=O)N1C(=O)[C@H](Cc2ccnc(N)c2)[C@H]1C(=O)N(C)c1ncccn1)C1CCCCC1 [Compound 37] |
| G (“G” indicates 1-100) | H (“H” indicates 101-1000) | < 10 nM | I (“I” indicates >500) | – | – | CC(C)[C@@H](NC(=O)N1C(=O)[C@H](Cc2ccnc(N)c2)[C@H]1C(=O)N(C)c1ccccc1)C1CCCCC1 [Compound 35] |
| G (“G” indicates 1-100) | G (“G” indicates 1-100) | < 10 nM | H (“H” indicates 101-1000) | 11 to 30 ×10⁻⁶ cm/s | ≤ 10 ×10⁻⁶ cm/s | CC[C@@H](NC(=O)N1C(=O)[C@H](Cc2ccnc(N)c2)[C@H]1C(=O)N(C)c1cccc(OC)c1)C1CCCCC1 [Compound 28] |
| G (“G” indicates 1-100) | H (“H” indicates 101-1000) | < 10 nM | I (“I” indicates >500) | – | – | CC[C@@H](NC(=O)N1C(=O)[C@H](Cc2ccnc(N)c2)[C@H]1C(=O)N(C)c1cccc(F)c1)C1CCCCC1 [Compound 29] |
| G (“G” indicates 1-100) | H (“H” indicates 101-1000) | < 10 nM | I (“I” indicates >500) | – | – | CCN(C(=O)[C@@H]1[C@@H](Cc2ccnc(N)c2)C(=O)N1C(=O)N[C@@H](C1CCCCC1)C1CC1)c1ccccc1 [Compound 55] |
| H (“H” indicates 101-1000) | H (“H” indicates 101-1000) | 10 to 100 nM | H (“H” indicates 101-1000) | – | – | CN(C(=O)[C@@H]1[C@@H](Cc2ccncc2)C(=O)N1C(=O)N[C@@H](C1CCCCC1)C1CC1)c1ccncc1 [Compound 64] |
| G (“G” indicates 1-100) | H (“H” indicates 101-1000) | < 10 nM | I (“I” indicates >500) | – | – | CC[C@@H](NC(=O)N1C(=O)[C@H](Cc2ccnc(N)c2)[C@H]1C(=O)N(CC)c1ccccc1)C1CCCCC1 [Compound 31] |

More lines, now with the values behind:

| SMILES | Ratio: Trypsin/FXIa (Trypsin) | Ratio: Thrombin/FXIa (Thrombin) | IC50 (human Factor XIa) | FXa/FXIa (selectivity ratio) (Factor Xa) | Papp A→B at 60 min, 10 μM [1] | Papp B→A at 40 min, 10 μM [1] |
| --- | --- | --- | --- | --- | --- | --- |
| CC[C@H](c1cccc(Cl)c1)N(C)C(=O)N1C(=O)[C@H](Cc2ccnc(N)c2)[C@H]1C(=O)N(C)c1ccncc1 [Compound 113] | G (“G” indicates 1-100) | H (“H” indicates 101-1000) | < 10 nM | I (“I” indicates >500) | ≤ 10 ×10⁻⁶ cm/s | 11 to 30 ×10⁻⁶ cm/s |
| CC[C@@H](NC(=O)N1C(=O)[C@H](Cc2ccnc(N)c2)[C@H]1C(=O)N(C)c1cccc(C)c1)c1cccc(Cl)c1 [Compound 117] | G (“G” indicates 1-100) | G (“G” indicates 1-100) | < 10 nM | H (“H” indicates 101-1000) | – | – |
| CC[C@@H](NC(=O)N1C(=O)[C@H](Cc2ccnc(N)c2)[C@H]1C(=O)N(C)c1ccncc1)c1cccc(Br)c1 [Compound 98] | G (“G” indicates 1-100) | H (“H” indicates 101-1000) | < 10 nM | H (“H” indicates 101-1000) | – | – |
| CC[C@@H](NC(=O)N1C(=O)[C@H](Cc2cc(C)nc(N)c2)[C@H]1C(=O)N(C)c1ncccn1)c1cccc(Cl)c1 [Compound 135] | G (“G” indicates 1-100) | H (“H” indicates 101-1000) | < 10 nM | I (“I” indicates >500) | – | – |
| CC[C@@H](NC(=O)N1C(=O)[C@H](Cc2ccnc(N)c2)[C@H]1C(=O)N(C)c1ccccc1)c1ccccc1 [Compound 40] | G (“G” indicates 1-100) | H (“H” indicates 101-1000) | < 10 nM | H (“H” indicates 101-1000) | – | – |
| CC[C@@H](NC(=O)N1C(=O)[C@H](Cc2cc(C)nc(N)c2)[C@H]1C(=O)N(C)c1ccccc1)c1ccccc1 [Compound 119] | G (“G” indicates 1-100) | H (“H” indicates 101-1000) | < 10 nM | I (“I” indicates >500) | – | – |
| CC[C@@H](NC(=O)N1C(=O)[C@H](Cc2ccnc(N)c2)[C@H]1C(=O)N(C)c1ccccc1)c1cccc(Cl)c1 [Compound 115] | G (“G” indicates 1-100) | H (“H” indicates 101-1000) | < 10 nM | H (“H” indicates 101-1000) | 11 to 30 ×10⁻⁶ cm/s | ≤ 10 ×10⁻⁶ cm/s |
| CC[C@@H](NC(=O)N1C(=O)[C@H](Cc2ccnc(N)c2)[C@H]1C(=O)N(C)c1cccc(F)c1)c1cccc(Cl)c1 [Compound 116] | G (“G” indicates 1-100) | H (“H” indicates 101-1000) | < 10 nM | H (“H” indicates 101-1000) | – | – |
| CC[C@@H](NC(=O)N1C(=O)[C@H](Cc2ccnc(N)c2)[C@H]1C(=O)N(C)c1ccncc1)c1cc(Cl)ccc1Cl [Compound 112] | G (“G” indicates 1-100) | H (“H” indicates 101-1000) | < 10 nM | H (“H” indicates 101-1000) | – | – |
| CC[C@@H](NC(=O)N1C(=O)[C@H](Cc2ccnc(N)c2)[C@H]1C(=O)N(C)c1cccc(Cl)c1)c1cccc(Cl)c1 [Compound 118] | G (“G” indicates 1-100) | G (“G” indicates 1-100) | < 10 nM | H (“H” indicates 101-1000) | – | – |
